# Source: patent US20070167369A1, “Novel use of isolated polypeptide comprising four FAS-1 domains, EM1 domain and RGD motif” (KYUNGPOOK NATIONAL UNIVERSITY INDUSTRY-ACADEMIC COOPERATION …, priority 2004, published 2007)
# Tested on: caspase-3
# Test: Caspase-3 activity in HUVECs (Example 7-2)
# Assay type: cell-based, human
# Settings: caspase-3-specific inhibitor added to samples
# Experimental: With respect to the induction of endothelial cell apoptosis (active cell death) by the fas-1 domain, which had been confirmed in Example 7-1 above, the present inventors measured the activity of caspase-3, which is activated when apoptosis occurs, in the cells treated with the fas-1 domain.
# HUVECs were spread onto a 100-mm plate (10 ml culture solution) with M199 medium containing 10% FBS, followed by incubation in a 37° C. incubator for 12 hours. After the incubation, the medium was removed from the plate, the cells were added with fresh medium containing 0.1% FBS and further incubated for 24 hours. The cell-containing medium was treated with 5 μM or 20 μM of the fas-1 domain (βig-h3 D-IV) prepared in Example 1. A control was treated with PBS buffer. At 12 hours and 24 hours after the treatment, the cells were harvested. The caspase-3 activity of the cells was measured with an EnzCheck Caspase-3 Assay Kit(#2) (Molecular Probe Co., Eugene, Oreg., USA). Moreover, to verify that measured values are attributed to caspase-3 activity, each of the samples was treated with DEVD-CHO (Molecular Probe Co., Eugene, Oreg., USA) as a caspase-3-specific inhibitor. The control was treated with DMSO.
substance,measurement,value
DEVD-CHO [reference compound],inhibition of caspase-3 activities of test groups and control group,inhibited
